Assay [1] can be described thus: Inhibition of porcine Pancreatic elastase without pre-incubation.
The nature of assay [2]: Inhibition of porcine Pancreatic elastase with 10 min pre-incubation.
Assay [3] in a line: Inhibition of porcine Pancreatic elastase without pre-incubation. This is another data set of the same source.
Experiment in assay [4]: as above
This is another data set of the same source.

For seven molecules, IC50 results are on record in BindingDB's records for doi:10.1016/0960-894X(95)00347-V (1995).

For orientation: IC50 means the midpoint of a concentration-inhibition curve. A low value points to inhibition by little substance.

As for `Cc1ccc(S(=O)(=O)O[C@H]2C(=O)N3[C@@H](C(=O)OCOC(=O)C(C)(C)C)C(C)(C)S(=O)(=O)[C@H]23)cc1` [(2S,5R,6S)-3,3-Dimethyl-4,4,7-trioxo-6-(toluene-4-sulfonyloxy)-4lambda*6*-thia-1-aza-bicyclo[3.2.0]heptane-2-carboxylic acid 2,2-dimethyl-propionyloxymethyl ester], the figures for the half-inhibitory concentration (IC50) in assay [1] and in assay [2] were 2100 nM and 490 nM, respectively. For the molecule `Cc1ccc(S(=O)(=O)O[C@H]2C(=O)N3[C@@H](C(=O)OCc4ccccc4)C(C)(C)S(=O)(=O)[C@H]23)cc1` [(2S,5R,6S)-3,3-Dimethyl-4,4,7-trioxo-6-(toluene-4-sulfonyloxy)-4lambda*6*-thia-1-aza-bicyclo[3.2.0]heptane-2-carboxylic acid benzyl ester], the IC50 in assay [3] is 150 nM; in assay [4], 23000 nM.

`CC(C)(C)C(=O)OCOC(=O)[C@@H]1N2C(=O)[C@H](OS(=O)(=O)C(F)(F)F)[C@H]2S(=O)(=O)C1(C)C` [(2S,5R,6S)-3,3-Dimethyl-4,4,7-trioxo-6-trifluoromethanesulfonyloxy-4lambda*6*-thia-1-aza-bicyclo[3.2.0]heptane-2-carboxylic acid 2,2-dimethyl-propionyloxymethyl ester] returned a 50% inhibitory concentration (IC50) in assay [1] of 1000 nM. In turn, `CC1(C)[C@H](C(=O)OCc2ccccc2)N2C(=O)[C@H](OS(=O)(=O)C(F)(F)F)[C@H]2S1(=O)=O` [(2S,5R,6S)-3,3-Dimethyl-4,4,7-trioxo-6-trifluoromethanesulfonyloxy-4lambda*6*-thia-1-aza-bicyclo[3.2.0]heptane-2-carboxylic acid benzyl ester] returned a concentration for half-maximal inhibition (IC50) in assay [1] of 680 nM. On to `CC(C)(C)C(=O)OCOC(=O)[C@@H]1N2C(=O)[C@H](Cl)[C@H]2S(=O)(=O)C1(C)C` [(2S,5R,6S)-6-Chloro-3,3-dimethyl-4,4,7-trioxo-4lambda*6*-thia-1-aza-bicyclo[3.2.0]heptane-2-carboxylic acid 2,2-dimethyl-propionyloxymethyl ester], for which the IC50 in assay [3] was 220000 nM; in assay [4], 280000 nM.

As to `CC(C)(C)C(=O)OCOC(=O)[C@@H]1N2C(=O)[C@H](OS(C)(=O)=O)[C@H]2S(=O)(=O)C1(C)C` [(2S,5R,6S)-6-Methanesulfonyloxy-3,3-dimethyl-4,4,7-trioxo-4lambda*6*-thia-1-aza-bicyclo[3.2.0]heptane-2-carboxylic acid 2,2-dimethyl-propionyloxymethyl ester], the IC50 in assay [1] was 4300 nM; in assay [2], 540 nM.

Turning to `CC1(C)[C@H](C(=O)OCc2ccccc2)N2C(=O)[C@H](OS(C)(=O)=O)[C@H]2S1(=O)=O` [(2S,5R,6S)-6-Methanesulfonyloxy-3,3-dimethyl-4,4,7-trioxo-4lambda*6*-thia-1-aza-bicyclo[3.2.0]heptane-2-carboxylic acid benzyl ester], the IC50 amounted to 130 nM in assay [3] and 2200 nM in assay [4].
